Values after ≈ are worked out from the molar mass of the structure shown. Like-named read-outs stand apart in the source and are kept apart here.
Legend:
[1] = test system: Penicillium commune; assay: Series dilution test in vitro, Penicillium commune; type: cell-based; details: read-out: Minimum inhibitory concentration (MIC)
Procedure: (§1) 1. DETERMINATION OF THE ANTI-MYCOTIC ACTION SPECTRUM IN VITRO BY THE SERIES DILUTION TEST.
(§2) Description of the Experiment
(§3) The nutrient substrates used were Sabourauds' milieu d'epreuve for dermatophytes and mould fungi and meat broth-glucose bouillon for blastomyces and biphase fungi. The incubation temperature was 28° C. and the incubation time was 24 to 96 hours.

[2] = test system: Microsporon felineum; assay: Series dilution test in vitro, Microsporon felineum; type: cell-based; details: 28° C., 24 to 96 hours; read-out: Minimum inhibitory concentration (MIC)
Procedure: as §1, §2, §3

[3] = test system: Trichophyton mentagrophytes; assay: Series dilution test in vitro, Trichophyton mentagrophytes; type: cell-based; details: for MIC: Trichophyton mentagrophytes, read-out: Minimum inhibitory concentration (MIC)
Procedure: as §1, §2, §3

[4] = test system: Aspergillus niger; assay: Series dilution test in vitro, Aspergillus niger; type: cell-based; details: for MIC: Aspergillus niger, read-out: Minimum inhibitory concentration (MIC)
Procedure: as §1, §2, §3

[5] = test system: Candida albicans; assay: Candidosis of mice; type: in vivo, Mice of Type SPF-CF1; details: 2 × 100 mg/kg orally, one hour before and seven hours after infection, survivors on 6th day
Procedure: as §2
Mice of Type SPF-CF1 were intravenously infected with 1-2 × 10^6 logarithmically growing Candida cells suspended in physiological sodium chloride solution.
One hour before and seven hours after infection the animals were treated orally with 2 × 100 mg of the preparations/kg of body weight.
Untreated animals died of the infection 3 to 6 days after infection. The survival rate on the 6th day after infection was about 5% in the case of untreated control animals.

[6] = test system: Candida albicans; assay: Series dilution test in vitro, Candida albicans; type: cell-based
Procedure: as §1, §2, §3

[7] = test system: Trichophyton mentagrophytes; assay: Topical application in experimental trichophytosis of guinea pigs; type: in vivo; parameters: key to the marks not given beside the values; details: 1% strength solution applied locally for 11 to 14 days
From the text: a. Topical Application in Experimental Trichophytosis of Guinea Pigs (Pathogen: Trichophyton metagrophytes)
as §2
A 1% strength solution of the active compounds in a dimethylsulphoxide/glycerine/water mixture (1:3:6) or in polyethylene glycol 400 was applied locally for 11 to 14 days after the trichophytosis had been produced experimentally.

[8] = test system: Trichophyton mentagrophytes; assay: Oral administration on Quinckeanum trichophytosis of white mice; type: in vivo; parameters: key to the marks not given beside the values; details: 100 mg/kg orally twice daily up to the eighth day of the infection
Procedure: b. Action, on Oral Administration, on Quinckeanum Trichophytosis of White Mice
It was possible to suppress the development of the Quinckeanum infection in mice with doses of 100 mg/kg of body weight given orally twice daily up to the eighth day of the infection.

[9] = n.s. (no serum added), * = 90% inhibition of growth
[10] = w.s. (with 30% serum added), * = 90% inhibition of growth
[11] = n.s. (no serum added), 28° C., 24 to 96 hours
[12] = w.s. (with 30% serum added), 28° C., 24 to 96 hours
[13] = n.s. (no serum added), * = 90% inhibition of growth, read-out: Minimum inhibitory concentration (MIC)
[14] = n.s. (no serum added), 28° C., 24 to 96 hours, read-out: Minimum inhibitory concentration (MIC)
[15] = w.s. (with 30% serum added), 28° C., 24 to 96 hours, read-out: Minimum inhibitory concentration (MIC)

| MIC ([1]; 28° C., 24 to 96 hours) [µg/mL] | MIC [2] [µg/mL] | MIC [4, 11] [µg/mL] | MIC [4, 12] [µg/mL] | MIC [6, 13] [µg/mL] | MIC [3, 11] [µg/mL] | MIC [3, 12] [µg/mL] | MIC [6, 14] [µg/mL] | MIC [6, 15] [µg/mL] | Structure (SMILES) | Action against Candida albicans [5] | also measured |
| --- | --- | --- | --- | --- | --- | --- | --- | --- | --- | --- | --- |
| > 100 | 40 (≈ 105 µM) | 100 (≈ 261 µM) | > 100 | 10 (≈ 26.1 µM) |  |  |  |  | O=C(c1ccc(Cl)cc1)C(Oc1ccc(Cl)cc1Cl)n1cncn1 (stereo not shown) [Example 6] | + (50% survivors on the 6th day after infection) | MIC [3, 9]: 4 µg/mL (≈ 10.5 µM); MIC [3, 10]: 10 µg/mL (≈ 26.1 µM); MIC ([6]; w.s. (with 30% serum added), * = 90% inhibition of growth, read-out: Minimum inhibitory concentration (MIC)): 100 µg/mL (≈ 261 µM) |
| > 64 |  |  |  |  | 8 (≈ 19.8 µM) | 64 (≈ 158 µM) | > 64 | > 64 | CC(C)(C)C(=O)C(Oc1ccc(Cl)cc1Cl)(c1ccccc1)n1cncn1 (stereo not shown) [Example 21] |  |  |
| > 64 |  |  |  | 64 (≈ 223 µM) | 32 (≈ 111 µM) | > 64 |  | > 64 | Cc1ccc(OC(C(=O)C(C)(C)C)n2cncn2)cc1C (stereo not shown) [Example 17] |  |  |
| > 64 |  |  |  |  | 8 (≈ 28.8 µM) | 32 (≈ 115 µM) | 100 (≈ 361 µM) | > 64 | CC(C)(C)C(=O)C(Oc1ccc(F)cc1)n1cncn1 (stereo not shown) [Example 9] | ++ (60-80% survivors on the 6th day after infection) |  |
| > 100 | 100 (≈ 305 µM) | 100 (≈ 305 µM) | 100 (≈ 305 µM) |  | 4 (≈ 12.2 µM) | 4 (≈ 12.2 µM) | 40 (≈ 122 µM) | 40 (≈ 122 µM) | CC(C)(C)C(=O)C(Oc1ccc(Cl)cc1Cl)n1cncn1 (stereo not shown) [Example 1, 1-[(2',4'-dichloro)-phenoxy]-1-[1',2', 4'-triazolyl-(1')]-3,3-dimethyl-butan-2-one] | + (50% survivors on the 6th day after infection) |  |
| > 64 |  |  |  |  | 32 (≈ 123 µM) | 32 (≈ 123 µM) | > 64 |  | CC(C)(C)C(=O)C(Oc1ccccc1)n1cncn1 (stereo not shown) [Example 15] |  |  |
|  |  |  |  |  |  |  |  |  | CC(C)(C)C(=O)C(Oc1ccc(Cl)cc1)n1cncn1 (stereo not shown) [Example 27] | ++++ (>80% survivors on the 6th day after infection) | MIC [1]: > 100 µg/mL; MIC [3]: 4 µg/mL (≈ 13.6 µM); Minimum inhibitory concentration (MIC) [3, 12]: 4 µg/mL (≈ 13.6 µM); MIC [4]: 100 µg/mL (≈ 340 µM); Minimum inhibitory concentration (MIC) [4, 12]: 100 µg/mL (≈ 340 µM); Action against Trichophyton mentagrophytes [7]: ++; Oral action against Trichophyton quinckeanum [8]: ++++; MIC ([6]; read-out: Minimum inhibitory concentration (MIC), n.s. (no serum added), 28° C., 24 to 96 hours): 40 µg/mL (≈ 136 µM); MIC ([6]; read-out: Minimum inhibitory concentration (MIC), w.s. (with 30% serum added), 28° C., 24 to 96 hours): 100 µg/mL (≈ 340 µM) |
| > 64 | > 64 | > 64 | > 64 |  |  |  | > 64 |  | CC(C)(C)C(=O)C(Oc1ccc(Cl)cc1)(c1ccccc1)n1cncn1 (stereo not shown) [Example 5, 1-[(4'-chlorophenoxy)]-1-[phenyl]-1-[1',2',4'triazolyl-(1')]-3,3-dimethyl-butan-2-one] |  | MIC [3, 9]: 1 µg/mL (≈ 2.7 µM); MIC [3, 10]: 32 µg/mL (≈ 86.5 µM) |
| > 64 |  |  |  |  | 32 (≈ 88.2 µM) | > 64 | > 64 |  | CC(C)(C)C(=O)C(Oc1cc(Cl)c(Cl)cc1Cl)n1cncn1 (stereo not shown) [Example 20] |  |  |

| Structure (SMILES) | MIC ([1]; 28° C., 24 to 96 hours) [µg/mL] | MIC [2] [µg/mL] | MIC [4, 11] [µg/mL] | MIC [4, 12] [µg/mL] | MIC [6, 13] [µg/mL] | MIC [3, 11] [µg/mL] | MIC [3, 12] [µg/mL] | MIC [6, 14] [µg/mL] | MIC [6, 15] [µg/mL] | Action against Candida albicans [5] | also measured |
| --- | --- | --- | --- | --- | --- | --- | --- | --- | --- | --- | --- |
| CC(C)(C)C(=O)C(Oc1ccc(-c2ccccc2)cc1)n1cncn1 (stereo not shown) [Example 12] |  | 40 (≈ 119 µM) |  | 100 (≈ 298 µM) | 100 (≈ 298 µM) | < 1 | < 1 |  | 100 (≈ 298 µM) | + (50% survivors on the 6th day after infection) | MIC ([1]; * = 90% inhibition of growth): 100 µg/mL (≈ 298 µM); MIC [4, 9]: 40 µg/mL (≈ 119 µM); Action against Trichophyton mentagrophytes [7]: ++++; Oral action against Trichophyton mentagrophytes [8]: ++ |
